What was measured:
[1] = Long-term storage stability of purified gabapentin (lactam formation, HPLC vs. standard); format: physicochemical; details: purified bulk gabapentin
From the text: Gabapentin purified according to these procedures contains less than 0.5% lactam as measured by HPLC vs. standard.

[2] = system: cardiozole cramp; details: in animals; cited from earlier work
[3] = according to Augart; cited from earlier work

Structure (SMILES)	amount of lactam after storage ([1]; a year of storage at 25° C. and 50% relative humidity)	conversion of gabapentin to its corresponding lactam ([1]; a year of storage at 25° C. and 60% relative humidity)	amount of lactam after storage ([1]; a year of storage at 55° C. and 50% relative humidity)	effect against cardiozole cramp [2]	toxicity relative to gabapentin [3]
NCC1(CC(=O)O)CCCCC1 [Gabapentin, 1-(aminomethyl)-1-cyclohexaneacetic acid]	less than 0.5 % by weight	≤ 0.2 % by weight of gabapentin	less than 0.5 % by weight	protective effect against cardiozole cramp	
O=C1CC2(CCCCC2)CN1 [lactam]					higher toxicity than gabapentin
